Test results reported in patent publication US20240018158A1, “BRM TARGETING COMPOUNDS AND ASSOCIATED METHODS OF USE” (Prelude Therapeutics Incorporated, priority 2020, published 2024).

Legend:
[1] = target: SMARCA4 (Homo sapiens (Human), UniProt P51532); test: SMARCA4 HiBiT degradation assay in HeLa cells; assay type: cell-based; conditions: 18 hours; for DC50: read-out: DC50 (SM4-HeLa) SMARCA4 degradation potency; for Dmax: HeLa, read-out: Dmax % (SM4-HeLa) maximum SMARCA4 degradation within the concentrations tested
Method: (§1) HiBiT peptide knock-in of SMARCA2 in LgBiT expressing HEK293T cells was performed by CRISPR-mediated tagging system as described Promega. The homozygous HiBiT knock-in on c-terminus SMARCA2 was confirmed by sanger sequence. SMARCA2-HiBiT knock-in Hela monoclonal cell (CS302366) and SMARCA4-HiBiT knock-in Hela monoclonal cell (CS3023226) were purchased from Promega. The heterozygous HiBiT-knock-in was confirmed by sanger sequence in both SMARCA2-HiBiT and SMARCA4-HiBiT monoclonal cells.
(§2) Dispense 10 μL aliquot of prepared Hela-SMARCA2-HiBiT or Hela-SMARCA4-HiBiT cells (1:1 ratio of cells:Trypan Blue (#1450013, Bio-Rad)) onto cell counting slide (#145-0011, Bio-Rad) and obtain cell density and cell viability using cell counter (TC20, Bio-Rad). Remove appropriate volume of resuspended cells from culture flask to accommodate 2500 cells/well @ 20 μL/well. Transfer Hela-HiBiT cells to 50 ml conical (#430290, Corning). Spin down at 1000 rpm for 5 min using tabletop centrifuge (SPINCHRON 15, Beckman). Discard supernatant and resuspend cell pellet in modified EMEM (#30-2003, ATCC) cell culture media containing 10% FBS (F2422-500ML, Sigma), and 1×Penicillin/Streptomycin (200 g/1) (30-002-CI, Corning) to a cell density of 125,000 cells/ml. Dispense 20 μL of resuspended Hela-HiBit cells per well in 384-well TC treated plate (#12-565-343, Thermo Scientific) using standard cassette (#50950372, Thermo Scientific) on Multidrop Combi (#5840310, Thermo Scientific) inside laminar flow cabinet. Dispense test compounds onto plates using digital liquid dispenser (D300E, Tecan). Incubate plates in humidified tissue culture incubator @37° C. for 18 hours. Add 20 ul of prepared Nano-Glo® HiBiT Lytic detection buffer (N3050, Promega) to each well of 384-well plate using small tube cassette (#24073295, Thermo Scientific) on Multidrop Combi, incubate @ RT for 30-60 min. Read plates on microplate reader (Envision 2105, PerkinElmer) using 384 well Ultra-Sensitive luminescence mode. Raw data files and compound information reports are swept into centralized data lake and deconvoluted using automated scripts designed by TetraScience, Inc. Data analysis, curve-fitting and reporting done in Dotmatics Informatics Suite using Screening Ultra module.

[2] = target: SMARCA2 (Homo sapiens (Human), UniProt P51531); test: SMARCA2 HiBiT degradation assay in HeLa cells; assay type: cell-based; conditions: 18 hours; for DC50: read-out: DC50 (SM2-HeLa) SMARCA2 degradation potency; for Dmax: read-out: Dmax % (SM2-HeLa) maximum SMARCA2 degradation within the concentrations tested
Method: as §1, §2

Chain of SMARCA2 (P51531 whole entry): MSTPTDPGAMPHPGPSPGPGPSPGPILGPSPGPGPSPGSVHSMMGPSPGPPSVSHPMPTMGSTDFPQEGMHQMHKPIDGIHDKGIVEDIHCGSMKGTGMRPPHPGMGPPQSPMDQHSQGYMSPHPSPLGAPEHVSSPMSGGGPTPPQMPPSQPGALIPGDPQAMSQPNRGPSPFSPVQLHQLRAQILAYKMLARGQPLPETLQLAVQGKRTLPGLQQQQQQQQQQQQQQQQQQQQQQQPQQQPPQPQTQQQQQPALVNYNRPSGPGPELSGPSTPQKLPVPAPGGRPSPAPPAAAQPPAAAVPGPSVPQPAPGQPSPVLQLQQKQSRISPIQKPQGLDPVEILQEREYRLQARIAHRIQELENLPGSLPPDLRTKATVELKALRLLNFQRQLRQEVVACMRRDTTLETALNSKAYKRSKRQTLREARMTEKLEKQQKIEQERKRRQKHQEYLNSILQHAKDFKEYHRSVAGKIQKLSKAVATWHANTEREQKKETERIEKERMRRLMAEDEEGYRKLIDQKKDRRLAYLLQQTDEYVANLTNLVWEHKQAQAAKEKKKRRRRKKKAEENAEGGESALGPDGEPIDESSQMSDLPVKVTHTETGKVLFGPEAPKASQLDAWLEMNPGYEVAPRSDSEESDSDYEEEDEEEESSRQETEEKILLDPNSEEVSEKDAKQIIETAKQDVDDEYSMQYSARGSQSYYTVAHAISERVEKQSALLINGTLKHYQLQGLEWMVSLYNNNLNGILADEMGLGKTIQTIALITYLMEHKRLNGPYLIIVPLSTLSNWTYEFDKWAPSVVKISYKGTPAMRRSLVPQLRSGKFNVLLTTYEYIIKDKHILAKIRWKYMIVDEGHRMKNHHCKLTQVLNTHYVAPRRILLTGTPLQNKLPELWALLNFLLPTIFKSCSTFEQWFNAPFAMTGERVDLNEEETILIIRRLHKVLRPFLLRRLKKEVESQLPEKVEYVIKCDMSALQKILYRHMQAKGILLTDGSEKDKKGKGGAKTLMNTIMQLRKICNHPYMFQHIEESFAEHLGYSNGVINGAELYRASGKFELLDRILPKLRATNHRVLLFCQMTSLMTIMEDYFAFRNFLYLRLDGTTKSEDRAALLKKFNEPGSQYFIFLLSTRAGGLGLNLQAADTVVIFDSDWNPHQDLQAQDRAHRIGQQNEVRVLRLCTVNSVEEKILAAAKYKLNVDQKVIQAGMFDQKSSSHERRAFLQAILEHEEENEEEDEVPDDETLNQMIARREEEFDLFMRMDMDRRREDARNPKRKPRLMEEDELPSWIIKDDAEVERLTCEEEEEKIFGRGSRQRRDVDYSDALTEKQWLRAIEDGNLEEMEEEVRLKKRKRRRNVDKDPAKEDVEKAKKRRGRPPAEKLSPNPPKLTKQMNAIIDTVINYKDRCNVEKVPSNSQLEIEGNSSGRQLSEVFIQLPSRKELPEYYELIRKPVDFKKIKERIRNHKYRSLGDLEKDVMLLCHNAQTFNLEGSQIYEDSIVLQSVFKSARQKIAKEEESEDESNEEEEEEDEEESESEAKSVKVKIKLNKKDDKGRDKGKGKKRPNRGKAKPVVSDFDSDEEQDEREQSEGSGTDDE
Chain of SMARCA4 (P51532 whole entry): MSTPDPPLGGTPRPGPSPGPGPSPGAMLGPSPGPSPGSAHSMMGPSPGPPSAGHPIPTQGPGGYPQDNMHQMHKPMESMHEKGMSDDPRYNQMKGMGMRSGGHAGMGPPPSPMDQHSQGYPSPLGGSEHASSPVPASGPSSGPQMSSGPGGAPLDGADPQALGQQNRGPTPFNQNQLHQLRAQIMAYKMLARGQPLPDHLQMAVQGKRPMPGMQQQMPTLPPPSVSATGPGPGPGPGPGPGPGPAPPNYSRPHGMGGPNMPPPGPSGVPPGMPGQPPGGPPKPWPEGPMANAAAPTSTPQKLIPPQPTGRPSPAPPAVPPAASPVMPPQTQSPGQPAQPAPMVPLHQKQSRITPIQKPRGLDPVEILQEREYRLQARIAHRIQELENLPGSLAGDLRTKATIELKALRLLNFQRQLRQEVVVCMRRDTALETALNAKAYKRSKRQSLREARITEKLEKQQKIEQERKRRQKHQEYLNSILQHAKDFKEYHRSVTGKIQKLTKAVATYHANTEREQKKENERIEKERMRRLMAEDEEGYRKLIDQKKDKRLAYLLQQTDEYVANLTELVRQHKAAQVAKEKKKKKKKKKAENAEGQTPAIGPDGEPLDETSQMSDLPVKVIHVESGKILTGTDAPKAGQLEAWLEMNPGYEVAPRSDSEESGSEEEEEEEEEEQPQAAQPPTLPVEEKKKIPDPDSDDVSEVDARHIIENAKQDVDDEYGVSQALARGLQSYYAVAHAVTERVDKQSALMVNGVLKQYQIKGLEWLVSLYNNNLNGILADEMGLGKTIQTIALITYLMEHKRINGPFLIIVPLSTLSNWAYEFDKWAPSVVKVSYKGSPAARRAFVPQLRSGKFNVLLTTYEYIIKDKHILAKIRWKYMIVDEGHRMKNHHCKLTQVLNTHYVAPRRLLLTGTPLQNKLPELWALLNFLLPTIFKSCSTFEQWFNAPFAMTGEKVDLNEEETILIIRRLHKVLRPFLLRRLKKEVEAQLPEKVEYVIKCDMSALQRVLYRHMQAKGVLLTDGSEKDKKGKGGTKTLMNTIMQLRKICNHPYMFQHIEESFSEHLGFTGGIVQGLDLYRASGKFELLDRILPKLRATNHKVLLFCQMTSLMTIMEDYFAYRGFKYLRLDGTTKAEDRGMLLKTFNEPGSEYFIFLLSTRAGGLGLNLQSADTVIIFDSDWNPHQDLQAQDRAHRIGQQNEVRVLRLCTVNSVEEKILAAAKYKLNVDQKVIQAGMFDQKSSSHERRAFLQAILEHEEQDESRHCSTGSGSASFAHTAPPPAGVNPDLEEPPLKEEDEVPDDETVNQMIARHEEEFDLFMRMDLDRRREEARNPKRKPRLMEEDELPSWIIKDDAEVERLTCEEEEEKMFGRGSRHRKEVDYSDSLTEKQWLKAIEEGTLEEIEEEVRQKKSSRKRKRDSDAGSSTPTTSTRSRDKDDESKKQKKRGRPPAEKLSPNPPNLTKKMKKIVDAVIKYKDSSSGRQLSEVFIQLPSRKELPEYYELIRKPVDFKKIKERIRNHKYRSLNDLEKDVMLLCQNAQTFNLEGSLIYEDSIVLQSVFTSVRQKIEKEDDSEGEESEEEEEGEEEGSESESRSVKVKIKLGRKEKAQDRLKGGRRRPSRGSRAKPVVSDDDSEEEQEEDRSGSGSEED

SMILES | DC50 [1] [nM] | Dmax [1] [%] | DC50 [2] [nM] | Dmax [2] [%] | Dmax % (SM4-HeLa) maximum SMARCA4 degradation within the concentrations tested [1] | Dmax % (SM2-HeLa) maximum SMARCA2 degradation within the concentrations tested [2]
Cc1ncsc1-c1ccc([C@H](C)NC(=O)[C@@H]2C[C@@H](O)CN2C(=O)[C@@H](c2cc(OCCN3CCC(N4CCC(N5CCN6c7cc(-c8ccccc8O)nnc7NC[C@H]6C5)CC4)C3)no2)C(C)C)cc1 (stereo partly drawn) [Example 25, (2S,4R)-4-hydroxy-1-((2R)-2-(3-(2-(3-(4-((S)-2-(2-hydroxyphenyl)-5,6,6a,7,9,10-hexahydro-8H-pyrazino[1′,2′:4,5]pyrazino[2,3-c]pyridazin-8-yl)piperidin-1-yl)pyrrolidin-1-yl)ethoxy)isoxazol-5-yl)-3-methylbutanoyl)-N-((S)-1-(4-(4-methylthiazol-5-yl)phenyl)ethyl)pyrrolidine-2-carboxamide] | 100 to 1000 | 50 to 75 | < 100 | > 75 |  | 
Cc1ncsc1-c1ccc([C@H](C)NC(=O)[C@@H]2C[C@@H](O)CN2C(=O)[C@@H](c2cc(OCCN3CCCC(N4CCN5c6cc(-c7ccccc7O)nnc6NC[C@H]5C4)C3)no2)C(C)C)cc1 (single isomer, unassigned) [Example 42] | < 100 |  | < 100 |  |  | 
Cc1ncsc1-c1ccc([C@H](C)NC(=O)[C@@H]2C[C@@H](O)CN2C(=O)[C@@H](c2cc(OCCN3CCCC(N4CCN5c6cc(-c7ccccc7O)nnc6NC[C@H]5C4)C3)no2)C(C)C)cc1 (single isomer, unassigned) [Example 41] | < 100 | > 75 | < 100 | > 75 |  | 
Cc1ncsc1-c1ccc([C@H](C)NC(=O)[C@@H]2C[C@@H](O)CN2C(=O)[C@@H](c2cc(O[C@H](C)CN3CCC(N4CCN5c6cc(-c7ccccc7O)nnc6NC[C@H]5C4)C3)no2)C(C)C)cc1 (single isomer, unassigned) [Example 51] | < 100 |  | < 100 |  | A/A (A = Dmax >75%) | A/A (A = Dmax >75%)
Cc1ncsc1-c1ccc([C@H](C)NC(=O)[C@@H]2C[C@@H](O)CN2C(=O)[C@@H](c2cc(OCCN3CCC(C(C)N4CCN5c6cc(-c7ccccc7O)nnc6NC[C@H]5C4)CC3)no2)C(C)C)cc1 (single isomer, unassigned) [Example 59] | < 100 |  | < 100 |  |  | 
Cc1ncsc1-c1ccc([C@H](C)NC(=O)[C@@H]2C[C@@H](O)CN2C(=O)[C@@H](c2cc(OCCN3CC(O)C(N4CCN5c6cc(-c7ccccc7O)nnc6NC[C@H]5C4)C3)no2)C(C)C)cc1 (stereo partly drawn) [Example 93, (2S,4R)-4-hydroxy-1-((2R)-2-(3-(2-(3-hydroxy-4-((S)-2-(2-hydroxyphenyl)-5,6,6a,7,9,10-hexahydro-8H-pyrazino[1′,2′:4,5]pyrazino[2,3-c]pyridazin-8-yl)pyrrolidin-1-yl)ethoxy)isoxazol-5-yl)-3-methylbutanoyl)-N-((S)-1-(4-(4-methylthiazol-5-yl)phenyl)ethyl)pyrrolidine-2-carboxamide] | < 100 | > 75 | < 100 | > 75 |  | 
Cc1ncsc1-c1ccc([C@H](C)NC(=O)[C@@H]2C[C@@H](O)CN2C(=O)[C@@H](c2cc(O[C@@H](C)CN3CCC(N4CCN5c6cc(-c7ccccc7O)nnc6NC[C@H]5C4)C3)no2)C(C)C)cc1 (stereo partly drawn) [Example 49, (2S,4R)-4-hydroxy-1-((2R)-2-(3-(((2S)-1-(3-((S)-2-(2-hydroxyphenyl)-5,6,6a,7,9,10-hexahydro-8H-pyrazino[1′,2′:4,5]pyrazino[2,3-c]pyridazin-8-yl)pyrrolidin-1-yl)propan-2-yl)oxy)isoxazol-5-yl)-3-methylbutanoyl)-N-((S)-1-(4-(4-methylthiazol-5-yl)phenyl)ethyl)pyrrolidine-2-carboxamide] | < 100 |  | < 100 |  | A/A (A = Dmax >75%) | A/A (A = Dmax >75%)
Cc1ncsc1-c1ccc([C@H](C)NC(=O)[C@@H]2C[C@@H](O)CN2C(=O)[C@@H](c2cc(OCCN3CCC(N4CCN5c6cc(-c7ccccc7O)nnc6NC[C@H]5C4)CC3)no2)C(C)C)cc1 [Example 76, (2S,4R)-4-hydroxy-1-((R)-2-(3-(2-(4-((S)-2-(2-hydroxyphenyl)-5,6,6a,7,9,10-hexahydro-8H-pyrazino[1′,2′:4,5]pyrazino[2,3-c]pyridazin-8-yl)piperidin-1-yl)ethoxy)isoxazol-5-yl)-3-methylbutanoyl)-N-((S)-1-(4-(4-methylthiazol-5-yl)phenyl)ethyl)pyrrolidine-2-carboxamide] | < 100 | > 75 | < 100 | > 75 |  | 
Cc1ncsc1-c1ccc([C@H](C)NC(=O)[C@@H]2C[C@@H](O)CN2C(=O)[C@@H](c2cc(OC(C)CN3CCC(N4CCN5c6cc(-c7ccccc7O)nnc6NC[C@H]5C4)CC3)no2)C(C)C)cc1 (stereo partly drawn) [Example 57, (2S,4R)-4-hydroxy-1-((2R)-2-(3-((1-(4-((S)-2-(2-hydroxyphenyl)-5,6,6a,7,9,10-hexahydro-8H-pyrazino[1′,2′:4,5]pyrazino[2,3-c]pyridazin-8-yl)piperidin-1-yl)propan-2-yl)oxy)isoxazol-5-yl)-3-methylbutanoyl)-N-((S)-1-(4-(4-methylthiazol-5-yl)phenyl)ethyl)pyrrolidine-2-carboxamide] | 100 to 1000 | 50 to 75 | < 100 | > 75 |  | 
Cc1ncsc1-c1ccc([C@H](C)NC(=O)[C@@H]2C[C@@H](O)CN2C(=O)[C@@H](c2cc(OCCN3CCC(N(C)C4CCN5c6cc(-c7ccccc7O)nnc6NCC5C4)CC3)no2)C(C)C)cc1 (stereo partly drawn) [Example 99, (2S,4R)-4-hydroxy-1-((2R)-2-(3-(2-(4-((2-(2-hydroxyphenyl)-6,6a,7,8,9,10-hexahydro-5H-pyrido[1′,2′:4,5]pyrazino[2,3-c]pyridazin-8-yl)(methyl)amino)piperidin-1-yl)ethoxy)isoxazol-5-yl)-3-methylbutanoyl)-N-((S)-1-(4-(4-methylthiazol-5-yl)phenyl)ethyl)pyrrolidine-2-carboxamide] | < 100 | > 75 | < 100 | > 75 |  | 
CCC(CN1CCC(N2CCN3c4cc(-c5ccccc5O)nnc4NC[C@H]3C2)C1)Oc1cc(C(C(=O)N2C[C@H](O)C[C@H]2C(=O)N[C@@H](C)c2ccc(-c3scnc3C)cc2)C(C)C)on1 (stereo partly drawn) [Example 62, (2S,4R)-4-hydroxy-1-(2-(3-((1-(3-((S)-2-(2-hydroxyphenyl)-5,6,6a,7,9,10-hexahydro-8H-pyrazino[1′,2′:4,5]pyrazino[2,3-c]pyridazin-8-yl)pyrrolidin-1-yl)butan-2-yl)oxy)isoxazol-5-yl)-3-methylbutanoyl)-N-((S)-1-(4-(4-methylthiazol-5-yl)phenyl)ethyl)pyrrolidine-2-carboxamide] | < 100 |  | < 100 |  | A/A (A = Dmax >75%) | A/A (A = Dmax >75%)
Cc1ncsc1-c1ccc([C@H](C)NC(=O)[C@@H]2C[C@@H](O)CN2C(=O)[C@@H](c2cc(OCCN3CCC(CN4C[C@@H]5CNc6nnc(-c7ccccc7O)cc6N5C[C@@H]4C)CC3)no2)C(C)C)cc1 [Example 101, (2S,4R)-4-hydroxy-1-((R)-2-(3-(2-(4-(((6aS,9S)-2-(2-hydroxyphenyl)-9-methyl-5,6,6a,7,9,10-hexahydro-8H-pyrazino[1′,2′:4,5]pyrazino[2,3-c]pyridazin-8-yl)methyl)piperidin-1-yl)ethoxy)isoxazol-5-yl)-3-methylbutanoyl)-N-((S)-1-(4-(4-methylthiazol-5-yl)phenyl)ethyl)pyrrolidine-2-carboxamide] | < 100 | > 75 | < 100 | > 75 |  | 
Cc1ncsc1-c1ccc([C@H](C)NC(=O)[C@@H]2C[C@@H](O)CN2C(=O)C(c2cc(CCN(C)CCN3CCN4c5cc(-c6ccccc6O)nnc5NC[C@H]4C3)no2)C(C)C)cc1 (stereo partly drawn) [Example 34, (2S,4R)-4-hydroxy-1-(2-(3-(2-((2-((S)-2-(2-hydroxyphenyl)-5,6,6a,7,9,10-hexahydro-8H-pyrazino[1′,2′:4,5]pyrazino[2,3-c]pyridazin-8-yl)ethyl)(methyl)amino)ethyl)isoxazol-5-yl)-3-methylbutanoyl)N-((S)-1-(4-(4-methylthiazol-5-yl)phenyl)ethyl)pyrrolidine-2-carboxamide] | ≥ 10000 | ≤ 50 | < 100 | > 75 |  | 
